{"source": "paper PMC9350903", "about": "(ACS chemical neuroscience, 2021)", "key": {"[1]": {"conditions": "oral administration; non-human primates; cited from earlier work"}, "[2]": {"system": "c-kit", "conditions": "cited from earlier work"}, "[3]": {"molecular_target": "T1, CSF-1R (Rattus norvegicus, UniProt Q00495)", "T1 sequence (Q00495 20-978)": "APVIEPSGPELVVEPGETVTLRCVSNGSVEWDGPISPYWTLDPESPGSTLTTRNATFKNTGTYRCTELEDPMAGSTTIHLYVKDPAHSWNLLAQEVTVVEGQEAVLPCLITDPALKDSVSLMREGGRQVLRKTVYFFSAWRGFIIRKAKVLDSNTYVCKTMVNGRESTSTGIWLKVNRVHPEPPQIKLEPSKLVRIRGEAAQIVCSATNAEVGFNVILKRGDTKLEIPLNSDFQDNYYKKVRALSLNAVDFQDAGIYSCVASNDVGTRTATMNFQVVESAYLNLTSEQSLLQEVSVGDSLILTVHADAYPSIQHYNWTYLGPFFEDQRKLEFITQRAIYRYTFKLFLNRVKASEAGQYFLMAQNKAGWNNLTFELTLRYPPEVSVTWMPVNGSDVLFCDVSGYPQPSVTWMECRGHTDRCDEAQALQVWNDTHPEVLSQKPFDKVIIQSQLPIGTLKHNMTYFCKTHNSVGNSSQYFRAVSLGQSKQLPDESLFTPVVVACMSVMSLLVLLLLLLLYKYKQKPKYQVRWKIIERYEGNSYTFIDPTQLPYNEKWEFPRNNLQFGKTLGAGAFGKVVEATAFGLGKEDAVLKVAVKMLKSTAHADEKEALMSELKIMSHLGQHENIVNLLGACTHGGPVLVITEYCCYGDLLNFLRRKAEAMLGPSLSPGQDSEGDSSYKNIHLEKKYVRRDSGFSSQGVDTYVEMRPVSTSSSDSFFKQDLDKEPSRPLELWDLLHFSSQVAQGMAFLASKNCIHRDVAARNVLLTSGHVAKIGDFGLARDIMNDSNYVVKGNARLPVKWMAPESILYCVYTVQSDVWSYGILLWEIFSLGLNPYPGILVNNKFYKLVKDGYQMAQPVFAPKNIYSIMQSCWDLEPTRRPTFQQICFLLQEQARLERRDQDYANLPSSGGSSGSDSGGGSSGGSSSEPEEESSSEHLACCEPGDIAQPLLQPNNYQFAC", "experiment": "[^3H]CPPC autoradiography in intrastriatal LPS rat brain tissues", "format": "binding", "conditions": "ipsilateral hemisphere of 30-day LPS rat brain; 10 μM competitor; [^3H]CPPC 3 nM"}, "[4]": {"system": "CSF-1R", "conditions": "cited from earlier work"}}, "data": [{"compound": "FC(F)(F)c1ccc(CNc2ccc(Cc3c[nH]c4ncc(Cl)cc34)cn2)cn1", "note": "[PLX3397, 5-((5-chloro-1H-pyrrolo[2,3-b]pyridin-3-yl)methyl)-N-((6-(trifluoromethyl)pyridin-3-yl)methyl)pyridin-2-amine]", "values": [{"measurement": "presence in cerebrospinal fluid", "setting": "[1]", "result": "observed in cerebrospinal fluid, albeit at low concentrations"}, {"measurement": "affinity for c-kit", "setting": "[2]", "result": 20, "unit": "nM"}, {"measurement": "inhibition of [^3H]CPPC binding", "setting": "[3]", "result": 15, "unit": "%"}, {"measurement": "affinity for CSF-1R", "setting": "[4]", "result": 10, "unit": "nM"}]}]}
